Experimental data taken from paper PMC2289734 (The Journal of Cell Biology, 1992).

How the values were obtained:
[1] = system: export of VSV-G protein from the ER; conditions: cited from earlier work
[2] = system: export of VSV-G protein from the ER; format: cell-based; conditions: for morphological effect on VSV-G export/transport: 45 min at 32°C
[3] = system: ER to Golgi transport of VSV-G protein; format: cell-based

Compound: C=C1[C@@H](O)[C@@H]2O[C@]3(CC[C@H](/C=C/[C@@H](C)[C@@H]4CC(C)=C[C@@]5(O[C@H](C[C@@](C)(O)C(=O)O)CC[C@H]5O)O4)O3)CC[C@H]2O[C@@H]1[C@@H](O)C[C@H](C)[C@H]1O[C@@]2(CCCCO2)CC[C@H]1C [OKA, okadaic acid]
- effect on VSV-G protein exit from the ER [1]: potently inhibit VSV-G protein exit from the ER

Compound: C/C=C(/C)C(=O)O[C@H]1C(C)=C2[C@H]([C@@H]1OC(=O)CCCCCCC)[C@@](C)(OC(C)=O)C[C@H](OC(=O)CCC)[C@@]1(O)[C@H]2OC(=O)[C@@]1(C)O [thapsigargan]
- effect on VSV-G export in vitro [2]: no effectof the drug

Compound: AlCl3
- effect on processing of VSV-G to the endo HR form [3]: no effect
- morphological effect on VSV-G export/transport [2]: did not inhibit

Compound: guanosine-5'-O-(3-thiophospbate) [GTPTS]
- VSV-G containing punctate intermediates that contain rab1B [2]: < 10%
- morphological effect on VSV-G export/transport [2]: concentrated in numerous small, punctate structures
